Test results reported in patent publication EP1561465A2, “Methods of use of fluoroquinolone compounds against bacteria” (LG Life Sciences, Ltd., priority 1999, dated 2001).
≈ marks a conversion by molar mass, not a printed value.

What was measured:
Assay type in all cases: cell-based
Enterococcus faecium = assay: MIC by NCCLS broth microdilution, 1100 Japanese clinical isolates 1997-1998; conditions: Enterococcus faecium
Escherichia coli [1] = assay: as above; conditions: for MIC50 / MIC90: Escherichia coli
Enterobacter aerogenes = assay: as above; conditions: Enterobacter aerogenes (n=35)
[2] = system: Gram positive anaerobic and facultative anaerobic pathogens; assay: microbe, parasite or virus in culture
[3] = MIC by agar dilution, Brucella HK agar, 491 anaerobic clinical isolates
Escherichia coli [4] = assay: MIC by agar dilution (NCCLS), 322 nosocomial Gram negative isolates, Athens 1998; conditions: n = 57 isolates
Acinetobacter spp. = assay: as above; conditions: n = 38 strains
Enterococcus faecalis = assay: MIC by agar macrodilution (NCCLS), 373 Gram positive isolates, Athens 1998
[5] = Escherichia coli ciprofloxacin susceptible (n=37)

Question: For `CO/N=C1\CN(c2nc3c(cc2F)c(=O)c(C(=O)O)cn3C2CC2)CC1CN` (racemic) [Gemifloxacin, (R,S)-7-(3-aminomethyl-4-methoxyiminopyrrolidin-1-yl)-1-cyclopropyl-6-fluoro-4-oxo-1,4-dihydro-1,8-naphthyridine-3-carboxylic acid], which MIC (Enterococcus faecium; Enterococcus faecium (vanA) vancomycin resistant, strain TMS4) is on record?
Answer: 4 µg/mL (≈ 10.3 µM)

Question: And the MIC (Enterococcus faecium; Enterococcus faecium (vanA) vancomycin resistant, strain TMS5)?
Answer: 2 µg/mL (≈ 5.14 µM)

Question: What about the MIC (Enterococcus faecium; Enterococcus laecium (van B) vancomycin resistant, strain TMS6) of the same compound?
Answer: 32 µg/mL (≈ 82.2 µM)

Question: And the MIC (Enterococcus faecium; Enterococcus laecium (van B) vancomycin resistant, strain TMS7)?
Answer: 32 µg/mL (≈ 82.2 µM)

Question: And the “MIC Range” value (Escherichia coli [1]; [5])?
Answer: ≤0.008 to 0.125 µg/mL

Question: And the MIC50 (Escherichia coli [1]; Escherichia coli ciprofloxacin resistant (n=5))?
Answer: 32 µg/mL (≈ 82.2 µM)

Question: And the MIC90 (Escherichia coli [1]; Escherichia coli ciprofloxacin resistant (n=5), values marked *: MIC80 value)?
Answer: 32 µg/mL (≈ 82.2 µM)

Question: And the MIC50 (Escherichia coli [1]; [5])?
Answer: ≤ 0.008 µg/mL

Question: And the MIC90 (Escherichia coli [1]; [5])?
Answer: 0.032 µg/mL (≈ 0.0822 µM)

Question: And the “MIC Range” value (Enterobacter aerogenes)?
Answer: 0.016 to 0.25 µg/mL

Question: What about the MIC50 (Enterobacter aerogenes; Klebsiella aerogenes) of the same compound?
Answer: 0.032 µg/mL (≈ 0.0822 µM)

Question: And the MIC90 (Enterobacter aerogenes; Klebsiella aerogenes)?
Answer: 0.063 µg/mL (≈ 0.162 µM)

Question: What about the MIC ([2]; Bifidobacterium adolescentis, ATCC15703) of the same compound?
Answer: 0.25 µg/mL (≈ 0.642 µM)

Question: What about the MIC ([2]; Bifidobacterium bifidum, JCM1255) of the same compound?
Answer: 2 µg/mL (≈ 5.14 µM)

Question: What about the MIC ([2]; Bifidobacterium breve, ATCC15700) of the same compound?
Answer: 1 µg/mL (≈ 2.57 µM)

Question: What about the MIC ([2]; Bifidobacterium longum, ATCC15707) of the same compound?
Answer: 1 µg/mL (≈ 2.57 µM)

Question: What about the MIC ([2]; Bifidobacterium pseudolongum, ATCC25526) of the same compound?
Answer: 1 µg/mL (≈ 2.57 µM)

Question: And the MIC ([2]; Clostridioides difficile)?
Answer: 2 µg/mL (≈ 5.14 µM)

Question: What about the MIC ([2]; Clostridium perfringens, ATCC13124) of the same compound?
Answer: 0.06 µg/mL (≈ 0.154 µM)

Question: And the MIC ([2]; Clostridium septicum, ATCC12464)?
Answer: 0.06 µg/mL (≈ 0.154 µM)

Question: What about the MIC ([2]; Cutibacterium acnes, ATCC11828) of the same compound?
Answer: 0.25 µg/mL (≈ 0.642 µM)

Question: What about the MIC ([2]; Eggerthella lenta, ATCC25559) of the same compound?
Answer: 0.25 µg/mL (≈ 0.642 µM)

Question: What about the MIC ([2]; Finegoldia magna, ATCC29328) of the same compound?
Answer: ≤ 0.03 µg/mL

Question: And the MIC ([2]; Gemella morbillorum, ATCC27824)?
Answer: 0.25 µg/mL (≈ 0.642 µM)

Question: And the MIC ([2]; Lacticaseibacillus casei, JCM1134)?
Answer: ≤ 0.03 µg/mL

Question: What about the MIC ([2]; Lactiplantibacillus plantarum, JCM1149) of the same compound?
Answer: 2 µg/mL (≈ 5.14 µM)

Question: And the MIC ([2]; Lactobacillus acidophilus, JCM1132)?
Answer: 0.5 µg/mL (≈ 1.28 µM)

Question: What about the MIC ([2]; Levilactobacillus brevis, JCM1059) of the same compound?
Answer: 0.5 µg/mL (≈ 1.28 µM)

Question: What about the MIC ([2]; Ligilactobacillus salivarius, JCM1231) of the same compound?
Answer: 0.06 µg/mL (≈ 0.154 µM)

Question: What about the MIC ([2]; Limosilactobacillus reuteri, JCM1112) of the same compound?
Answer: 0.25 µg/mL (≈ 0.642 µM)

Question: What about the MIC ([2]; Limosilactobacillus reuteri, JCM1173) of the same compound?
Answer: 0.25 µg/mL (≈ 0.642 µM)

Question: And the MIC ([2]; Paraclostridium sordellii, ATCC9714)?
Answer: 0.5 µg/mL (≈ 1.28 µM)

Question: And the MIC ([2]; Parvimonas micra)?
Answer: 0.125 µg/mL (≈ 0.321 µM)

Question: What about the MIC ([2]; Peptoniphilus asaccharolyticus) of the same compound?
Answer: 0.125 µg/mL (≈ 0.321 µM)

Question: What about the MIC ([2]; Peptoniphilus indolicus) of the same compound?
Answer: ≤ 0.03 µg/mL

Question: And the MIC ([2]; Peptostreptococcus anaerobius, ATCC27337)?
Answer: 0.06 µg/mL (≈ 0.154 µM)

Question: What about the MIC ([2]; Schaalia odontolytica) of the same compound?
Answer: 4 µg/mL (≈ 10.3 µM)

Question: And the MIC ([2]; Staphylococcus saccharolyticus, ATCC14953)?
Answer: ≤ 0.03 µg/mL

Question: And the MIC ([2]; Streptococcus constellatus, ATCC27823)?
Answer: ≤ 0.03 µg/mL

Question: What about the MIC ([2]; Streptococcus intermedius, ATCC27335) of the same compound?
Answer: 0.06 µg/mL (≈ 0.154 µM)

Question: What about the MIC ([2]; Thomasclavelia ramosa, ATCC25582) of the same compound?
Answer: 0.5 µg/mL (≈ 1.28 µM)

Question: And the MIC90 ([3]; clinical isolates of Bacteroides spp., Prevotella bivia and other Prevotella spp.)?
Answer: 8 to 32 µg/mL (≈ 20.5 to 82.2 µM)

Question: And the MIC ([3]; read-out: MIC90s)?
Answer: 0.125 to 0.5 µg/mL (≈ 0.321 to 1.28 µM)

Question: And the MIC50 (Escherichia coli [4]; Escherichia coli)?
Answer: ≤ 0.03 µg/mL

Question: What about the MIC90 (Escherichia coli [4]; Escherichia coli) of the same compound?
Answer: 0.25 µg/mL (≈ 0.642 µM)

Question: What about the “MIC Range” value (Escherichia coli [4]) of the same compound?
Answer: ≤0.03 to 64 µg/mL

Question: What about the MIC50 (Acinetobacter spp.; Acinetobacter) of the same compound?
Answer: 2 µg/mL (≈ 5.14 µM)

Question: What about the MIC90 (Acinetobacter spp.; Acinetobacter) of the same compound?
Answer: 32 µg/mL (≈ 82.2 µM)

Question: And the “MIC Range” value (Acinetobacter spp.)?
Answer: 0.06 to 32 µg/mL

Question: And the “MIC distribution (µg/ml) 0.03” value (Enterococcus faecalis)?
Answer: 2

Question: And the “MIC distribution (µg/ml) 0.06” value (Enterococcus faecalis)?
Answer: 2

Question: And the “MIC distribution (µg/ml) 0.125” value (Enterococcus faecalis)?
Answer: 24

Question: What about the “MIC distribution (µg/ml) 0.25” value (Enterococcus faecalis) of the same compound?
Answer: 22

Question: What about the “MIC distribution (µg/ml) 1” value (Enterococcus faecalis) of the same compound?
Answer: 2

Question: What about the “MIC distribution (µg/ml) 2” value (Enterococcus faecalis) of the same compound?
Answer: 1

Question: And the “MIC distribution (µg/ml) 4” value (Enterococcus faecalis)?
Answer: 5

Question: And the “MIC distribution (µg/ml) 8” value (Enterococcus faecalis)?
Answer: 9

Question: What about the “MIC distribution (µg/ml) 16” value (Enterococcus faecalis) of the same compound?
Answer: 5

Question: What about the “MIC distribution (µg/ml) ≤0.015” value (Enterococcus faecalis) of the same compound?
Answer: 0

Question: What about the “MIC distribution (µg/ml) ≥32” value (Enterococcus faecalis) of the same compound?
Answer: 4

Question: And the MIC50 (Enterococcus faecalis; Enterococcus faecalis, n = 81 isolates, read-out: MIC50)?
Answer: 0.25 µg/mL (≈ 0.642 µM)

Question: And the MIC90 (Enterococcus faecalis; Enterococcus faecalis, n = 81 isolates, read-out: MIC90)?
Answer: 16 µg/mL (≈ 41.1 µM)

Question: And the “MIC distribution (µg/ml) 0.5” value (Enterococcus faecalis; number of isolates at MIC 0.5 µg/ml, n = 81)?
Answer: 5
